{
  "source": "patent US20150190407A1",
  "about": "“METHODS FOR TREATMENT OF POSTOPERATIVE INFLAMMATION WITH REDUCED INTRAOCULAR PRESSURE” (Insite Vision Incorporated, priority 2014, published 2015)",
  "key": {"[1]": {"assay": "Release from the vehicle in the rabbit eye, measured in aqueous humor", "assay_type": "in vivo", "conditions": "in the ophthalmically acceptable vehicle", "procedure": "The viscous gels that result upon administration of the aqueous suspensions of the present disclosure to the eye have residence times in the eye ranging from about 2 to about 12 hours, e.g., from about 3 to about 6 hours. The active ingredients contained in these ophthalmically acceptable vehicles are released from the gels at rates that depend on such factors as the active ingredient itself and its physical form, the extent of drug loading and the pH of the system, as well as on any drug delivery adjuvants, such as ion exchange resins compatible with the ocular surface, which can also be present."}, "[2]": {"conditions": "cited from earlier work"}, "[3]": {"conditions": "after 8 days of treatment for inflammation following ocular surgery; cited from earlier work"}},
  "note": "Like-named read-outs stand apart in the source and are kept apart here.",
  "data": [
    {"smiles": "CC(=O)[C@@]1(O)CC[C@H]2[C@@H]3C[C@H](C)C4=CC(=O)C=C[C@]4(C)[C@@]3(F)[C@@H](O)C[C@@]21C", "note": "[fluorometholone]", "values": [
      {"measurement": "release rates in the rabbit eye, as measured by fluorometholone contained in the aqueous humor", "setting": "[1]", "result": "in excess of four hours"}
    ]},
    {"smiles": "C[C@@H]1C[C@H]2[C@@H]3CCC4=CC(=O)C=C[C@]4(C)[C@@]3(F)[C@@H](O)C[C@]2(C)[C@@]1(O)C(=O)COP(=O)(O)O", "note": "[dexamethasone phosphate]", "values": [
      {"measurement": "increase of intraocular pressure", "setting": "[2]; after one week", "result": "1-2 mmHg"},
      {"measurement": "increase of intraocular pressure", "setting": "[2]; after six weeks", "result": "5-6 mmHg"},
      {"measurement": "increase of intraocular pressure", "setting": "[2]; after two weeks", "result": "3-4 mmHg"},
      {"measurement": "median intraocular pressure vs placebo (saline 0.9%)", "setting": "[3]", "result": "significantly higher"}
    ]},
    {"smiles": "C[C@@H]1C[C@H]2[C@@H]3CCC4=CC(=O)C=C[C@]4(C)[C@@]3(F)[C@@H](O)C[C@]2(C)[C@@]1(O)C(=O)CO", "note": "[dexamethasone]", "values": [
      {"measurement": "rise in IOP (published data)", "setting": "[2]; administered without the benefit of a sustained release vehicle", "result": "3-4 mmHg"}
    ]}
  ]
}
